Measurements: ChEMBL document CHEMBL4270501, “Indole-fused azepines and analogues as anticancer lead molecules: Privileged findings and future directions” (Eur J Med Chem, 2017)
pIC50: −log10 of the molar value.

Test system: MCF7
Assay: Growth inhibition of human MCF7 cells by MTT assay
Format: functional, cell-based

`COc1ccc2c3c([nH]c2c1)-c1ccccc1NC(=O)C3` showed a pIC50 of 6.22.

`O=C1Cc2c([nH]c3ccccc23)-c2ccccc2N1` [PAULLONE] gave a pIC50 of 5.92.
